Test results: patent EP1500700B1, “Use of a pectic acid lyase in a detergent” (KAO CORPORATION, priority 1997, dated 1998)

Columns and labels:
[1] = system: pectic acid lyases from Example 3 and Example 8; assay type: biochemical, Bacillus sp. KSM-P15; conditions: pH 7.5
[2] = system: recombinant pectic acid lyase of Bacillus sp. KSM-P15 (rPAL, Example 8), Sequence No. 1; experiment: Effect of H2O2 on residual pectic acid lyase activity; assay type: biochemical; conditions: in the presence of 3% H2O2; 50 mM Tris-HCl buffer (pH 7.5), 30°C, 30 minutes
Experimental: (§1) 0.5 M glycine-NaOH buffer (pH 10.5) (0.3 ml), 6 mM calcium chloride (0.3 ml), and deionized water (1.7 ml) were placed in a test tube, which was then incubated at 30°C for 5 minutes. An appropriately diluted enzyme solution [0.1 ml, diluted with 50 mM Tris-HCl buffer containing 1 mM calcium chloride (pH 7.5)] was added to the test tube, which was further incubated at constant temperature for 5 minutes. An aqueous solution of polygalacturonic acid (0.6 ml, 1% (w/v), product of ICN Biomedicals Co., Lot 14482, pH 6.8 adjusted with sodium hydroxide solution) was added to the enzyme solution to initiate reaction, and the mixture was incubated at 30°C for 10 minutes. The reaction was terminated by the addition of 3 ml of 50 mM HCl. The quantity of unsaturated Oligogalacturonic acid formed in the reaction was determined through measuring the absorbance at 235 nm and calculating with the molar extinction coefficient of unsaturated digalacturonide (4600 M^-1 cm^-1, Hasegawa & Nagel, J. Food Sci., 31, 838-845, 1966). A test blank was prepared as follows: 50 mM hydrochloric acid (3 ml) was added to a reaction mixture treated without being incorporated with the enzyme solution, and subsequently an enzyme solution (0.1 ml) was added thereto. […]

[3] = system: pectic acid lyase from Bacillus sp. KSM-P15, wild type (BPAL, Example 3), Sequence No. 1; experiment: as above; assay type: biochemical; conditions: in the presence of 3% H2O2; 50 mM Tris-HCl buffer (pH 7.5), 30°C, 30 minutes
Experimental: as §1

[4] = system: wild-type and reconbinant enzyme; experiment: Effect of the arginine-modifier 2,3-butanedione on residual activity; assay type: biochemical, Bacillus sp. KSM-P15; conditions: 0.1 M borate buffer pH 9.5, 30°C, 30 minutes; both enzymes

Compound | inhibition (in words) [1] | further results
O=C1CCC(=O)N1Br [N-bromosuccinimide] | – | percentage inhibition [1]: 30-40%
CCOC(=O)OC(=O)OCC [diethyl pyrocarbonate] | slightly inhibited or did not completely inhibit the enzymes | –
O=C(O)CI [iodoacetic acid] | slightly inhibited or did not completely inhibit the enzymes | –
O=C(O)c1cc[c]([Hg][Cl])cc1 [p-Chloromercuribenzoic acid] | slightly inhibited or did not completely inhibit the enzymes | –
O[C@H](CS)[C@H](O)CS (racemic) [dithiothreitol] | slightly inhibited or did not completely inhibit the enzymes | –
O=C(O)c1cc(SSc2ccc([N+](=O)[O-])c(C(=O)O)c2)ccc1[N+](=O)[O-] [5,5'-dithiobis(2-nitrobenzoic acid)] | slightly inhibited or did not completely inhibit the enzymes | –
H2O2 | – | inactivation (residual activity, in words) [2]: not be inactivated; inactivation (residual activity, in words) [3]: not be inactivated
CC(=O)C(C)=O [2,3-butanedione] | – | inhibition (residual activity) [4]: ≥ 40%
CCN1C(=O)C=CC1=O [N-ethylmaleimide] | slightly inhibited or did not completely inhibit the enzymes | –
O=CC=O [glyoxal] | slightly inhibited or did not completely inhibit the enzymes | –
